Reference: ChEMBL document CHEMBL4507262, “Data for DCP probe A-1596586” (2021)

Legend:
[1] = biological target: T1, Alpha-1B adrenergic receptor (Homo sapiens) (UniProt P35368); experiment: Alpha1B (h) Eurofins-Cerep binding assay; conditions: filed as antagonist, Compound concentration 10.0 uM
T1 sequence (whole entry): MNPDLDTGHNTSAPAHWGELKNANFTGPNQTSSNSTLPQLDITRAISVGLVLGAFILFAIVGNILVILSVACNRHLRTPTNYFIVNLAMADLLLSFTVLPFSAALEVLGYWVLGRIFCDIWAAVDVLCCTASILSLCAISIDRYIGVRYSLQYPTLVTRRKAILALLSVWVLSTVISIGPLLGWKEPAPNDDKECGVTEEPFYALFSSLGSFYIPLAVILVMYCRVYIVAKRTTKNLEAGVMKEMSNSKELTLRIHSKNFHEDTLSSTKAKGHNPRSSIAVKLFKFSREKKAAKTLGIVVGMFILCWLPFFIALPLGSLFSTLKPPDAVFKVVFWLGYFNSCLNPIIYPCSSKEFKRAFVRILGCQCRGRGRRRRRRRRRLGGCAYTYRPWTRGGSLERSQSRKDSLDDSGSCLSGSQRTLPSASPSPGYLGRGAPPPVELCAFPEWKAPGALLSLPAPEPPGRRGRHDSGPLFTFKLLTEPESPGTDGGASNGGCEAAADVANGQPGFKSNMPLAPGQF

[2] = biological target: Neuropeptide Y receptor type 1 (Homo sapiens) (UniProt P25929); experiment: Y1 (h) Eurofins-Cerep binding assay; design: ligand concentration 0.025 nM; conditions: filed as agonist, Compound concentration 10.0 uM
[3] = biological target: 5-hydroxytryptamine receptor 4 (Homo sapiens) (UniProt Q13639); experiment: 5-HT4 e (h) Eurofins-Cerep binding assay; design: ligand concentration 0.3 nM; conditions: filed as antagonist, Compound concentration 10.0 uM
[4] = biological target: L-type Ca2+ channel (diltiazem site, benzothiazepines) (Rattus norvegicus, UniProt P22002+P27732+Q02485); experiment: Ca2+ channel (L, diltiazem site) (benzothiazepines) Eurofins-Cerep binding assay; type: protein assay; design: incubation time 120 min, incubation temperature RT, ligand concentration 15 nM; conditions: rat cerebral cortex, probe [3H]diltiazem (15 nM), compound concentration 10 uM, read-out: % Inhibition of Control Specific Binding (Mean n=2)
[5] = test system: Tyrosine-protein kinase ABL1 (Homo sapiens), P00519 [Q252H]; conditions: Compound concentration 1000.0 nM
[6] = biological target: Atypical kinase COQ8A, mitochondrial (Homo sapiens) (UniProt Q8NI60); conditions: Compound concentration 1000.0 nM
[7] = biological target: 5'-AMP-activated protein kinase catalytic subunit alpha-2 (Homo sapiens) (UniProt P54646); conditions: Compound concentration 1000.0 nM
[8] = biological target: Mitogen-activated protein kinase kinase kinase 5 (Homo sapiens) (UniProt Q99683); conditions: Compound concentration 1000.0 nM
[9] = biological target: Calcium/calmodulin-dependent protein kinase kinase 2 (Homo sapiens) (UniProt Q96RR4); conditions: Compound concentration 1000.0 nM
[10] = biological target: Cyclin-dependent kinase-like 3 (Homo sapiens) (UniProt Q8IVW4); conditions: Compound concentration 1000.0 nM
[11] = biological target: Citron Rho-interacting kinase (Homo sapiens) (UniProt O14578); conditions: Compound concentration 1000.0 nM
[12] = biological target: Dual specificity protein kinase CLK3 (Homo sapiens) (UniProt P49761); conditions: Compound concentration 1000.0 nM
[13] = biological target: Casein kinase I isoform gamma-1 (Homo sapiens) (UniProt Q9HCP0); conditions: Compound concentration 1000.0 nM
[14] = biological target: Death-associated protein kinase 3 (Homo sapiens) (UniProt O43293); conditions: Compound concentration 1000.0 nM
[15] = biological target: Serine/threonine-protein kinase/endoribonuclease IRE1 (Homo sapiens) (UniProt O75460); conditions: Compound concentration 1000.0 nM
[16] = biological target: Rhodopsin kinase GRK7 (Homo sapiens) (UniProt Q8WTQ7); conditions: Compound concentration 1000.0 nM
[17] = biological target: Tyrosine-protein kinase HCK (Homo sapiens) (UniProt P08631); conditions: Compound concentration 1000.0 nM
[18] = biological target: Tyrosine-protein kinase JAK1 (Homo sapiens) (UniProt P23458); conditions: Compound concentration 1000.0 nM
[19] = biological target: Mast/stem cell growth factor receptor Kit (Homo sapiens) (UniProt P10721); conditions: Compound concentration 1000.0 nM
[20] = biological target: LIM domain kinase 2 (Homo sapiens) (UniProt P53671); conditions: Compound concentration 1000.0 nM
[21] = biological target: MAP kinase-activated protein kinase 5 (Homo sapiens) (UniProt Q8IW41); conditions: Compound concentration 1000.0 nM
[22] = biological target: Misshapen-like kinase 1 (Homo sapiens) (UniProt Q8N4C8); conditions: Compound concentration 1000.0 nM
[23] = biological target: Serine/threonine-protein kinase PAK 6 (Homo sapiens) (UniProt Q9NQU5); conditions: Compound concentration 1000.0 nM
[24] = biological target: Cyclin-dependent kinase 17 (Homo sapiens) (UniProt Q00537); conditions: Compound concentration 1000.0 nM
[25] = biological target: Protein kinase C delta type (Homo sapiens) (UniProt Q05655); conditions: Compound concentration 1000.0 nM
[26] = biological target: Receptor-interacting serine/threonine-protein kinase 1 (Homo sapiens) (UniProt Q13546); conditions: Compound concentration 1000.0 nM
[27] = biological target: Ribosomal protein S6 kinase alpha-6 (Homo sapiens) (UniProt Q9UK32); conditions: Compound concentration 1000.0 nM
[28] = biological target: Serine/threonine-protein kinase 36 (Homo sapiens) (UniProt Q9NRP7); conditions: Compound concentration 1000.0 nM
[29] = biological target: Serine/threonine-protein kinase TAO2 (Homo sapiens) (UniProt Q9UL54); conditions: Compound concentration 1000.0 nM
[30] = biological target: TRAF2 and NCK-interacting protein kinase (Homo sapiens) (UniProt Q9UKE5); conditions: Compound concentration 1000.0 nM
[31] = biological target: Serine/threonine-protein kinase TNNI3K (Homo sapiens) (UniProt Q59H18); conditions: Compound concentration 1000.0 nM
[32] = biological target: Non-receptor tyrosine-protein kinase TYK2 (Homo sapiens) (UniProt P29597); conditions: Compound concentration 1000.0 nM
[33] = biological target: Wee1-like protein kinase 2 (Homo sapiens) (UniProt P0C1S8); conditions: Compound concentration 1000.0 nM
[34] = biological target: D(3) dopamine receptor (Homo sapiens) (UniProt P35462); conditions: Compound concentration 10.0 uM
[35] = biological target: GABA-A receptor; anion channel (Rattus norvegicus) (UniProt O09028+P15431+P18506+P18508+P19969+P20236+P23574+P23576+P28471+P28473+P30191+P62813+P63079+P63138+Q91ZM7+Q9ES14); conditions: Compound concentration 10.0 uM

Sequence of Serine/threonine-protein kinase/endoribonuclease IRE1 (Homo sapiens) (O75460 19-977 limits assumed): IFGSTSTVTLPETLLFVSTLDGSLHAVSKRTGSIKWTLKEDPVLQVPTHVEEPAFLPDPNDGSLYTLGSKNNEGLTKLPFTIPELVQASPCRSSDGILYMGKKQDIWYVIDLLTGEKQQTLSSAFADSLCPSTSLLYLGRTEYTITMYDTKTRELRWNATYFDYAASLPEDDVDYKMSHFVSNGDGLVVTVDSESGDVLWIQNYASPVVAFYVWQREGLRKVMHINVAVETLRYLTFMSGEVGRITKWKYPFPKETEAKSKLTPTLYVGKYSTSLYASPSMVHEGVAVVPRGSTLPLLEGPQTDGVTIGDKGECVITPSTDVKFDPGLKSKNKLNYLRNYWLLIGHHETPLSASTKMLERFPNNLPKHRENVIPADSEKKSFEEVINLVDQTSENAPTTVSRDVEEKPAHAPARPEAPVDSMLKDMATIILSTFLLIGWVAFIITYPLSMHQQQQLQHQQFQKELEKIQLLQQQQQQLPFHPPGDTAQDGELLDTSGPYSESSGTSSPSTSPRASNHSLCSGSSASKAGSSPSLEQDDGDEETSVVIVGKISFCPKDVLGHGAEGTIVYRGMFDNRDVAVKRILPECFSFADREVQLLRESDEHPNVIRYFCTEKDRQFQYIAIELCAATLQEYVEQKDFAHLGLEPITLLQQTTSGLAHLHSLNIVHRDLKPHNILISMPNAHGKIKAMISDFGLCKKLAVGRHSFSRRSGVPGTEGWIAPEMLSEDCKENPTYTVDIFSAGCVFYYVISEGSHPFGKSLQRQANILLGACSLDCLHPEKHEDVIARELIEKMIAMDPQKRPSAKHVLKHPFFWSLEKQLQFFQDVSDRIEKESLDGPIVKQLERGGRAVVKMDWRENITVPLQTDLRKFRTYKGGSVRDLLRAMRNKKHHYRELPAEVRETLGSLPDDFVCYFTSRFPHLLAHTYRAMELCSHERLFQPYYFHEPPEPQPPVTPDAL
Sequence of Serine/threonine-protein kinase 36 (Homo sapiens) (Q9NRP7 whole entry): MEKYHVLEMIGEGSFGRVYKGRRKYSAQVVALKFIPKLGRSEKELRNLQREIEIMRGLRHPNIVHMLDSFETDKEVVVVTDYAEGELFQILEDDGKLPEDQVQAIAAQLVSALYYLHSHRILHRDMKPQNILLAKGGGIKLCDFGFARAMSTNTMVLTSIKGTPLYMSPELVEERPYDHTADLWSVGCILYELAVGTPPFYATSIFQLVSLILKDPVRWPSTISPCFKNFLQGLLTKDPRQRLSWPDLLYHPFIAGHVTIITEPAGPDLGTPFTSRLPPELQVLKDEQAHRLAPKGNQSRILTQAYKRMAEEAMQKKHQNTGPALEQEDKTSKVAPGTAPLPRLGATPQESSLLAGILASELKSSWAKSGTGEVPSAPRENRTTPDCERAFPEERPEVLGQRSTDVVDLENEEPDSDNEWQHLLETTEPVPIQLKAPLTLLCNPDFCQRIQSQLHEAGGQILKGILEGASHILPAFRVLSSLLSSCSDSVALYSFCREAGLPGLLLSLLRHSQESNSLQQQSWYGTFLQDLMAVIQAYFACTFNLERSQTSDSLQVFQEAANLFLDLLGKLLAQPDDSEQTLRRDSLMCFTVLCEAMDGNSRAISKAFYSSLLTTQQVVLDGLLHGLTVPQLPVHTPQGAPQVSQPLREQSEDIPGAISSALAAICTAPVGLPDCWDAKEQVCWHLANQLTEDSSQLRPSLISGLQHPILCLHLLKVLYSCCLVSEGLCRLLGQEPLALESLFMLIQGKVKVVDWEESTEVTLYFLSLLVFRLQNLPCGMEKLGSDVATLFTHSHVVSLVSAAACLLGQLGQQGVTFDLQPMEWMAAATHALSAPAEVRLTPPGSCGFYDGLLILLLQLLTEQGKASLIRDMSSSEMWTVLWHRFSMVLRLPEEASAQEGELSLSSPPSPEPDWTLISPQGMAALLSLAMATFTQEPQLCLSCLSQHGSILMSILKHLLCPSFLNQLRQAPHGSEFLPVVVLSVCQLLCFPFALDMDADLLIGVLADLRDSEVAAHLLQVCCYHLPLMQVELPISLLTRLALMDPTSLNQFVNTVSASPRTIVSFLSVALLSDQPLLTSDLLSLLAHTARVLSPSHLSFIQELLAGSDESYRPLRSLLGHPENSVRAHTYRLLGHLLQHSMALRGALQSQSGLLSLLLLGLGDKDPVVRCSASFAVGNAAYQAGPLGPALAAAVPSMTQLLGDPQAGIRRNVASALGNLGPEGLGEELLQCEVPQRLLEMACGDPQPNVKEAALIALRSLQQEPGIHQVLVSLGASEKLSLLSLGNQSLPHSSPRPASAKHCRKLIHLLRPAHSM
Sequence of Serine/threonine-protein kinase TAO2 (Homo sapiens) (Q9UL54 whole entry): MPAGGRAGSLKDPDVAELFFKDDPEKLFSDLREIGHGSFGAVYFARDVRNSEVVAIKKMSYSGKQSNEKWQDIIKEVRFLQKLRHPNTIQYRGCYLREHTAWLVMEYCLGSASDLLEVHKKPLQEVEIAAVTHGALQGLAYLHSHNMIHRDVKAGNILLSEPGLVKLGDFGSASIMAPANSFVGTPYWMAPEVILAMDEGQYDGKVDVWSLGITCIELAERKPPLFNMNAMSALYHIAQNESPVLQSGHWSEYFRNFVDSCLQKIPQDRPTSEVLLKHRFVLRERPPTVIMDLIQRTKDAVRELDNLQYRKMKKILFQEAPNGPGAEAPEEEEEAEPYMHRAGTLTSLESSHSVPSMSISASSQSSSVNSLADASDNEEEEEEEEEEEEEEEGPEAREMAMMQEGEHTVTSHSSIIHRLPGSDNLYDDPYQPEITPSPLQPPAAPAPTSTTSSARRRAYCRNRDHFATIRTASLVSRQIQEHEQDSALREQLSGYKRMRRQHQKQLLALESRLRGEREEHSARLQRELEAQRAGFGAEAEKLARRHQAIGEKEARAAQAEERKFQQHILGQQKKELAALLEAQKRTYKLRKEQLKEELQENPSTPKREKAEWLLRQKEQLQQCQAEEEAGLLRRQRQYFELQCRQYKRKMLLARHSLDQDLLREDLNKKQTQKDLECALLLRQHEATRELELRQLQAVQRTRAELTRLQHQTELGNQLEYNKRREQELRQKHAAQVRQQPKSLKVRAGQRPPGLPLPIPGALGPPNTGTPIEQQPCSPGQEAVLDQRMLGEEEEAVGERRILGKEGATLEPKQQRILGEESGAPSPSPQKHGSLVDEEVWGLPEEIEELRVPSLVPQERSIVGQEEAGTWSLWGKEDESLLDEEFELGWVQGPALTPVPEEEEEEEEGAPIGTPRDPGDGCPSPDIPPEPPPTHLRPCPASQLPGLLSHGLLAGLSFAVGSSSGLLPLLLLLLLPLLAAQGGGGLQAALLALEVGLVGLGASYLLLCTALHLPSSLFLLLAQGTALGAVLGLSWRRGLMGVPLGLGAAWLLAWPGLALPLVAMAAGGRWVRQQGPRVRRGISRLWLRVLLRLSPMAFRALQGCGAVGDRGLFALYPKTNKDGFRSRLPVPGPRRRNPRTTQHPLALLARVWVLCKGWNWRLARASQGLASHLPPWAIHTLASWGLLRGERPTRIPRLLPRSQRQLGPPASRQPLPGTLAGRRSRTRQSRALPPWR
Sequence of Casein kinase I isoform gamma-1 (Homo sapiens) (Q9HCP0 whole entry, looked up, canonical isoform): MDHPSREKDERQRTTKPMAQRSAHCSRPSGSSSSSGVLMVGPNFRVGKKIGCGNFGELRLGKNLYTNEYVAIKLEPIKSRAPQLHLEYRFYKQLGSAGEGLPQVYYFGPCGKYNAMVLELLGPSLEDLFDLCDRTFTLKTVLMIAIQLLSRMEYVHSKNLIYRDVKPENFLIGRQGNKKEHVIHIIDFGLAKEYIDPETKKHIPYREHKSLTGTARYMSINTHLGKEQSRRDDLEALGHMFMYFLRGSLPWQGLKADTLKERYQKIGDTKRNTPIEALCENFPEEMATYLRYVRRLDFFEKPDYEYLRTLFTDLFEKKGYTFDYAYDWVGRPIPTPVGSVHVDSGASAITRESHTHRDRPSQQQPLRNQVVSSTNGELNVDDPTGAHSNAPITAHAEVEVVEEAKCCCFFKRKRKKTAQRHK
Sequence of Rhodopsin kinase GRK7 (Homo sapiens) (Q8WTQ7 whole entry): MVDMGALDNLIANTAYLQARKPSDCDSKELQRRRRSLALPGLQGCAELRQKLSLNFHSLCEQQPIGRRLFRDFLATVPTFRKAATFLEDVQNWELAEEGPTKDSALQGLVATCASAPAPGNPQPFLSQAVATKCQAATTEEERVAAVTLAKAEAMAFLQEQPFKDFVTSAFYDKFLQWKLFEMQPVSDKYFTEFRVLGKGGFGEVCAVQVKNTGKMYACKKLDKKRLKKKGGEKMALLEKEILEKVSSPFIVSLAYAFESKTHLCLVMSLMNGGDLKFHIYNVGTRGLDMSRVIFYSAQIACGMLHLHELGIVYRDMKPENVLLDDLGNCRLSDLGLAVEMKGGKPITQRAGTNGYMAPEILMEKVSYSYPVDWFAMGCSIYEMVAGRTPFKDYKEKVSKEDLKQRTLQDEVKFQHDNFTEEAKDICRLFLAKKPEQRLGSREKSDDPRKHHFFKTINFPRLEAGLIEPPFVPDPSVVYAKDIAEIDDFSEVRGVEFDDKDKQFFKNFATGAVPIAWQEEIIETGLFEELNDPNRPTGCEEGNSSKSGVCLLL
Sequence of Calcium/calmodulin-dependent protein kinase kinase 2 (Homo sapiens) (Q96RR4 2-588 limits assumed): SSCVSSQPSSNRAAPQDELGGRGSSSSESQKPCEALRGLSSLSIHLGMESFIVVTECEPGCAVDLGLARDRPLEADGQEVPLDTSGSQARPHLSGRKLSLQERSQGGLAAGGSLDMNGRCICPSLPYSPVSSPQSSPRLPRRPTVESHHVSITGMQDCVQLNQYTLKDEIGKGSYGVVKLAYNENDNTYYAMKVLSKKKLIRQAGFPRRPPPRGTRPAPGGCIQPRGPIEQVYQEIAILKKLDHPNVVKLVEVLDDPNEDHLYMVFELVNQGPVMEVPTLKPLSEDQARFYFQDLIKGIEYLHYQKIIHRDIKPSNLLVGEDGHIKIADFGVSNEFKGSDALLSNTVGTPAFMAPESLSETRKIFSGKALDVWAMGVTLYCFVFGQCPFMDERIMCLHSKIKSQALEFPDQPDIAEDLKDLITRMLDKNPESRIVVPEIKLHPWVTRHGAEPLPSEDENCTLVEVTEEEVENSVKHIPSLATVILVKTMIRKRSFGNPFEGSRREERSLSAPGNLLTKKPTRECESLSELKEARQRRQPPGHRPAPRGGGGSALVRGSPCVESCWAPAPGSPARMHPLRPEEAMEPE

SMILES	% Inhibition of Control Specific Binding (Mean n=2) [1]	% Inhibition of Control Specific Binding (Mean n=2) [2]	% Inhibition of Control Specific Binding (Mean n=2) [3]	inhibition at 120 min, 10 µM [4]	residual activity [5]	residual activity [6]	residual activity [7]	residual activity [8]	residual activity [9]	residual activity [10]	residual activity [11]	residual activity [12]	residual activity [13]	residual activity [14]	residual activity [15]	residual activity [16]	residual activity [17]	residual activity [18]	residual activity [19]	residual activity [20]	also measured
COc1ccc2c(c1)O[C@@H](c1ccc(OC)c(OC)c1)C[C@H]2NC(=O)C1(c2ccc3c(c2)OC(F)(F)O3)CC1 [A-1596586]	4.8%	9.8%	10.2%	29.7%	90%	87%	100%	94%	96%	94%	90%	100%	99%	93%	100%	100%	88%	90%	88%	100%	residual activity [21]: 76%; residual activity [22]: 77%; residual activity [23]: 79%; residual activity [24]: 100%; residual activity [25]: 100%; residual activity [26]: 93%; residual activity [27]: 91%; residual activity [28]: 100%; residual activity [29]: 83%; residual activity [30]: 71%; residual activity [31]: 100%; residual activity [32]: 65%; residual activity [33]: 100%; inhibition [34]: -1.53%; inhibition [35]: 2.64%
COc1ccc2c(c1)O[C@H](c1ccc(OC)c(OC)c1)C[C@@H]2NC(=O)C1(c2ccc3c(c2)OC(F)(F)O3)CC1 [A-1596584]	17.4%	-0.4%	5.3%	-7.6%	100%	100%	98%	100%	100%	97%	92%	100%	100%	95%	100%	100%	100%	100%	99%	100%	residual activity [21]: 100%; residual activity [22]: 100%; residual activity [23]: 100%; residual activity [24]: 100%; residual activity [25]: 100%; residual activity [26]: 100%; residual activity [27]: 91%; residual activity [28]: 94%; residual activity [29]: 98%; residual activity [30]: 100%; residual activity [31]: 100%; residual activity [32]: 85%; residual activity [33]: 100%; inhibition [34]: -9.23%; inhibition [35]: 11.1%
